Data from patent US20170348369A1, “Plant Extract and Its Therapeutic Use” (Viridis Pharmaceutical Limited, priority 2008, published 2017).

Target: T1, purified human DNA topoisomerase IIα (Homo sapiens, UniProt P11388)
T1 construct: purchased TopoGEN
Assay: Inhibition of topoisomerase II activity (TopoGEN Topoisomerase II Drug Screening Kit)
Type: biochemical
Conditions: cell-free; FIG. 13; 0.3, 3, 30 μg/ml
Protocol: With the liquid extract ViP-E_Matr'08_1102, prepared according to example 7, the liquid extract ViP-E_Matr08_1106, prepared according to example 8, or the liquid extract ViP-E_Matr'08_1105, prepared according to example 9, […] As positive control etoposide was carried along.
The inhibition of topoisomerase II was determined using purified human DNA topoisomerase Ilα and the “Topoisomerase II Drug Screening Kit” from TopoGEN. Thereby it was proceeded according to the manufacturer's protocol. The DNA was separated by electrophoresis on an agarose gel and visualized under UV light after staining with ethidium bromide. With this approach the relaxed DNA (topoisomers) generated by topoisomerase II could be detected and clearly separated from the supercoiled DNA substrate.

T1 sequence (P11388 whole entry): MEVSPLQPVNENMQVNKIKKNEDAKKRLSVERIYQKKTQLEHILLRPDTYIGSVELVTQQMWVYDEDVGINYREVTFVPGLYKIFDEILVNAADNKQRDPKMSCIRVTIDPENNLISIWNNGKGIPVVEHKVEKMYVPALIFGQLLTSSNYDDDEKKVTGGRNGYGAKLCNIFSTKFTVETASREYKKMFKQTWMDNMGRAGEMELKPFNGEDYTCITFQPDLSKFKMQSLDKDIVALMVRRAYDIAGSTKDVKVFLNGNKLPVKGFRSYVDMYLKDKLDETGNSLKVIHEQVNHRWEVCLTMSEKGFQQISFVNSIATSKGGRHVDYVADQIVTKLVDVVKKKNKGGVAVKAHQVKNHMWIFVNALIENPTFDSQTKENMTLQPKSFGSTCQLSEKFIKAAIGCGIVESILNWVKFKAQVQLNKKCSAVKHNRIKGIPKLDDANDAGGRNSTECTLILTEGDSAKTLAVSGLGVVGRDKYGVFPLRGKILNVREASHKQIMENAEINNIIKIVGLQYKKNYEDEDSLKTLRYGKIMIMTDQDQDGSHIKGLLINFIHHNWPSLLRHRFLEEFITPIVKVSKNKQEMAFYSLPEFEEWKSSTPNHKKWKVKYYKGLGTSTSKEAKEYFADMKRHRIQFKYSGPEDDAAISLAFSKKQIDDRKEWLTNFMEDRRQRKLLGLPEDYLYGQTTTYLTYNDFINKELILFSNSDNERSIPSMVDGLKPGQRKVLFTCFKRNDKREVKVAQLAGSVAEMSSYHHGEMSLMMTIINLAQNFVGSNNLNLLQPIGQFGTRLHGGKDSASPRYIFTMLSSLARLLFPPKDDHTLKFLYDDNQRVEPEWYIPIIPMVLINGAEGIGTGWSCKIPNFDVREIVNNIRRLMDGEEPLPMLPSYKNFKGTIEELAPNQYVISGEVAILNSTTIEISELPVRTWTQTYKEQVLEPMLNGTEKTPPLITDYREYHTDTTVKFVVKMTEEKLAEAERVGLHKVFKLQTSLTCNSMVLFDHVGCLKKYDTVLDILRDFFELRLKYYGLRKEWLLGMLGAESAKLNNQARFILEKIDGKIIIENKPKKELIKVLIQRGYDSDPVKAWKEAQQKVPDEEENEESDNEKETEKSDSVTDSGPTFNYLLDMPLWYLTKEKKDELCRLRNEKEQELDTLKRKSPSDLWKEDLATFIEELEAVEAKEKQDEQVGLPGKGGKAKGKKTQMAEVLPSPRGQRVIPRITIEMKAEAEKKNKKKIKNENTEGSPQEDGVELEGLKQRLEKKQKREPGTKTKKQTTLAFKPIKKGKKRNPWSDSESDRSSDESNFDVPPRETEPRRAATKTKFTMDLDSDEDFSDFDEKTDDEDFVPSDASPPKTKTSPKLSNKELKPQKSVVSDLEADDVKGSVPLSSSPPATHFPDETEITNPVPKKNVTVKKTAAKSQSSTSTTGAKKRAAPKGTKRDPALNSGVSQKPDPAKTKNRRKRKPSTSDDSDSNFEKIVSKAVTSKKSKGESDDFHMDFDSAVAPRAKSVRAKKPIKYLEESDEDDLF

Substance: α-Bisabolol
- inhibition of topoisomerase II activity: did not influence the topoisomerase II activity in all tested concentrations
